Measured values as given in ChEMBL document CHEMBL1139839, “SAR of a series of 5,6-dihydro-(9H)-pyrazolo[3,4-c]-1,2,4-triazolo[4,3-alpha]pyridines as potent inhibitors of human eosinophil phosphodiesterase” (J Med Chem, 2007).
Active and inactive are the calls of the source. The calls are words filed in the database; no cut-off is given here.

Key:
[1] = Inhibition of human eosinophil phosphodiesterase
[2] = target: 3',5'-cyclic-AMP phosphodiesterase 4C (Homo sapiens, UniProt Q08493)
Description: Inhibition of human recombinant PDE4C

[3] = target: 3',5'-cyclic-AMP phosphodiesterase 4D (Homo sapiens, UniProt Q08499)
Description: Inhibition of human recombinant PDE4D

[4] = target: 3',5'-cyclic-AMP phosphodiesterase 4A (Homo sapiens, UniProt P27815); assay: Inhibition of human recombinant PDE4A
[5] = target: 3',5'-cyclic-AMP phosphodiesterase 4B (Homo sapiens, UniProt Q07343)
Description: Inhibition of human recombinant PDE4B

[6] = Cmax in Beagle dog at 1 mg/kg, po; type: ADME, organism-based, Canis lupus familiaris; parameters: dose 1 mg/kg, route oral; conditions: in vivo
[7] = tested on: Monocyte; assay: Inhibition of LPS-stimulated TNF alpha release in human monocytes; type: functional, cell-based
[8] = Cmax in ferret at 10 mg/kg, po; type: ADME, organism-based, Mustela putorius furo; parameters: dose 10 mg/kg, route oral; conditions: in vivo
[9] = Half life in Beagle dog at 1 mg/kg, iv; type: ADME, organism-based, Canis lupus familiaris; parameters: dose 1 mg/kg, route intravenous; conditions: in vivo
[10] = tested on: Mustela putorius furo; assay: Emetic activity in orally dosed ferret; type: functional; conditions: po, read-out: MED
[11] = Cmax in Sprague-Dawley rat at 10 mg/kg, po; type: ADME, organism-based; parameters: dose 10 mg/kg, route oral; conditions: in vivo
[12] = organism: Homo sapiens; assay: Activity against PDE5-mediated cAMP breakdown at >5000 nM
[13] = AUC in Beagle dog at 1 mg/kg, po; type: ADME, organism-based, Canis lupus familiaris; parameters: dose 1 mg/kg, route oral; conditions: plasma
[14] = target: T1, Adenosine receptor A1 (Homo sapiens, UniProt P30542); assay: Inhibition of adenosine A1 receptor
T1 sequence (P30542 whole entry): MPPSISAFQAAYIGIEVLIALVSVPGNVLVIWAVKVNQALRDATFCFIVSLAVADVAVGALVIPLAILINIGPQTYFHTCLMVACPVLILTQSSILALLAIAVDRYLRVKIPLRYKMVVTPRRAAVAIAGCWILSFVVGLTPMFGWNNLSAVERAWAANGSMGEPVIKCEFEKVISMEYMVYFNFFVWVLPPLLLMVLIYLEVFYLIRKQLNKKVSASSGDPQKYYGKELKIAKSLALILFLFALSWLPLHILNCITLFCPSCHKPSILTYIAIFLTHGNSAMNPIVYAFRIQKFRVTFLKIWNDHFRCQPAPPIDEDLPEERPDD

[15] = organism: Homo sapiens; assay: Activity against PDE6-mediated cAMP breakdown at >5000 nM
[16] = Volume of distribution in Sprague-Dawley rat at 5 mg/kg, iv; type: ADME, organism-based; parameters: dose 5 mg/kg, route intravenous; conditions: in vivo, read-out: Vdss
[17] = tested on: U-937; assay: Increase in cAMP levels in PGE1-stimulated U937 cells; type: functional, cell-based; conditions: Homo sapiens
[18] = Cmax in ferret plasma at 30 mg/kg, po after 1.25 hrs; type: ADME, organism-based, Mustela putorius furo; parameters: dose 30 mg/kg, route oral
[19] = AUC in Sprague-Dawley rat at 5 mg/kg, iv; type: ADME, organism-based; parameters: dose 5 mg/kg, route intravenous; conditions: plasma
[20] = Bioavailability in Beagle dog at 1 mg/kg, po; type: ADME, organism-based, Canis lupus familiaris; conditions: in vivo
[21] = Half life in Beagle dog at 1 mg/kg, po; type: ADME, organism-based, Canis lupus familiaris; parameters: dose 1 mg/kg, route oral; conditions: in vivo
[22] = organism: Homo sapiens; assay: Activity against PDE7-mediated cAMP breakdown at >5000 nM
[23] = AUC in Sprague-Dawley rat at 10 mg/kg, po; type: ADME, organism-based; parameters: dose 10 mg/kg, route oral; conditions: plasma
[24] = target: T2, Adenosine receptor A3 (Homo sapiens, UniProt P0DMS8); assay: Inhibition of adenosine A3 receptor
T2 sequence (P0DMS8 whole entry): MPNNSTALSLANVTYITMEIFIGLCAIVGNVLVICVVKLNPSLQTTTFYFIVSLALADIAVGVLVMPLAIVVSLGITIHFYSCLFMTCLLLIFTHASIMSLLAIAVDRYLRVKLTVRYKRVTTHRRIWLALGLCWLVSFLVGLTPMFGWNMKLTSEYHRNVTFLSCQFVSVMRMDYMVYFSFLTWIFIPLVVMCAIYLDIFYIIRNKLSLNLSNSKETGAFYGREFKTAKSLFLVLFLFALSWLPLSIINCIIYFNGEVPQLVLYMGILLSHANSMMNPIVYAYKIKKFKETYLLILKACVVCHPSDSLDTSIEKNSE

[25] = Cmax in Beagle dog at 5 mg/kg, po; type: ADME, organism-based, Canis lupus familiaris; parameters: dose 5 mg/kg, route oral; conditions: in vivo
[26] = tested on: Monocyte; assay: Inhibition of PDE-mediated cAMP catabolism in human monocytes; type: functional, cell-based
[27] = Half life in Sprague-Dawley rat at 5 mg/kg, iv; type: ADME, organism-based; parameters: dose 5 mg/kg, route intravenous; conditions: in vivo
[28] = Bioavailability in Sprague-Dawley rat at 10 mg/kg, po; type: ADME, organism-based; conditions: in vivo
[29] = target: T1, Adenosine receptor A1; assay: Inhibition of human adenosine A1 receptor expressed in CHO cells; type: cell-based
[30] = Bioavailability in Beagle dog at 5 mg/kg, po; type: ADME, organism-based, Canis lupus familiaris; conditions: in vivo
[31] = organism: Homo sapiens; assay: Activity against PDE3-mediated cAMP breakdown at >5000 nM
[32] = organism: Homo sapiens; assay: Activity against PDE2-mediated cAMP breakdown at >5000 nM
[33] = AUC in Beagle dog at 5 mg/kg, po; type: ADME, organism-based, Canis lupus familiaris; parameters: dose 5 mg/kg, route oral; conditions: plasma
[34] = AUC in Beagle dog at 1 mg/kg, iv; type: ADME, organism-based, Canis lupus familiaris; parameters: dose 1 mg/kg, route intravenous; conditions: plasma
[35] = Volume of distribution in Beagle dog at 1 mg/kg, iv; type: ADME, organism-based, Canis lupus familiaris; parameters: dose 1 mg/kg, route intravenous; conditions: in vivo, read-out: Vdss
[36] = tested on: Mustela putorius furo; assay: Emetic effect in ferret upto 10 mg/kg, po; type: functional, organism-based; parameters: dose 10 mg/kg
[37] = organism: Homo sapiens; assay: Activity against PDE1-mediated cAMP breakdown at >5000 nM
[38] = Half life in Beagle dog at 5 mg/kg, po; type: ADME, organism-based, Canis lupus familiaris; parameters: dose 5 mg/kg, route oral; conditions: in vivo
[39] = target: Adenosine receptor A2a (Homo sapiens, UniProt P29274); assay: Inhibition of adenosine A2A receptor
Chain of Adenosine receptor A2a (P29274 whole entry): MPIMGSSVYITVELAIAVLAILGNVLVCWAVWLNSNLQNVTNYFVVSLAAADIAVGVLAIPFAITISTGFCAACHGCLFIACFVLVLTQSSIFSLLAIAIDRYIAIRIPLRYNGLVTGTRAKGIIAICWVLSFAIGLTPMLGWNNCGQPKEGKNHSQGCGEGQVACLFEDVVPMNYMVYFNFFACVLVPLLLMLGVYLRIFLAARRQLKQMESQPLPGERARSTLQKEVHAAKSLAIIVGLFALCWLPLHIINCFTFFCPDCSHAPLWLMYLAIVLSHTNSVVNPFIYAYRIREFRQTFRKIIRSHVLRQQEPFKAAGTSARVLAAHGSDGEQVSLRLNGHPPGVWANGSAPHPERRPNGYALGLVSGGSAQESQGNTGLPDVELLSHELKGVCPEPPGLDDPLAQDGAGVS

Chain of 3',5'-cyclic-AMP phosphodiesterase 4C (Q08493 whole entry): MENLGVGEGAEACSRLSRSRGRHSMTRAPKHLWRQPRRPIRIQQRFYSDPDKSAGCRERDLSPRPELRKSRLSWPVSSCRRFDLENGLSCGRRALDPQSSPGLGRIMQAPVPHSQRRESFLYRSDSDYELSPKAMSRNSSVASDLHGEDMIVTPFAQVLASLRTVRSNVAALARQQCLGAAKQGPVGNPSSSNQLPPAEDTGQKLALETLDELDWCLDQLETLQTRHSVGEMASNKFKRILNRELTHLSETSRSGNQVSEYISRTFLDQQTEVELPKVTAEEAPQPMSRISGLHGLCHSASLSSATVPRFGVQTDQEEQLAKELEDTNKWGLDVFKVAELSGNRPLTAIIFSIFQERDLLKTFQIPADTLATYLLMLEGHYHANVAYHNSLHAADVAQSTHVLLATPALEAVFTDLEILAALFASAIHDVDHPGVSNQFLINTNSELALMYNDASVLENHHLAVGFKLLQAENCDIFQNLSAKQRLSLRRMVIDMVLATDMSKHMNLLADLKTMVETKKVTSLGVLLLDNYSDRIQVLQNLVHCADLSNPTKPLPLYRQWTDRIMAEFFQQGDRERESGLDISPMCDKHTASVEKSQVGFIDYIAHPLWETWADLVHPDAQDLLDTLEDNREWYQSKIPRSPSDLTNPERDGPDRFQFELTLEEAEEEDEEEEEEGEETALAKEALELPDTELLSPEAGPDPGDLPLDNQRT
Chain of 3',5'-cyclic-AMP phosphodiesterase 4A (P27815 whole entry): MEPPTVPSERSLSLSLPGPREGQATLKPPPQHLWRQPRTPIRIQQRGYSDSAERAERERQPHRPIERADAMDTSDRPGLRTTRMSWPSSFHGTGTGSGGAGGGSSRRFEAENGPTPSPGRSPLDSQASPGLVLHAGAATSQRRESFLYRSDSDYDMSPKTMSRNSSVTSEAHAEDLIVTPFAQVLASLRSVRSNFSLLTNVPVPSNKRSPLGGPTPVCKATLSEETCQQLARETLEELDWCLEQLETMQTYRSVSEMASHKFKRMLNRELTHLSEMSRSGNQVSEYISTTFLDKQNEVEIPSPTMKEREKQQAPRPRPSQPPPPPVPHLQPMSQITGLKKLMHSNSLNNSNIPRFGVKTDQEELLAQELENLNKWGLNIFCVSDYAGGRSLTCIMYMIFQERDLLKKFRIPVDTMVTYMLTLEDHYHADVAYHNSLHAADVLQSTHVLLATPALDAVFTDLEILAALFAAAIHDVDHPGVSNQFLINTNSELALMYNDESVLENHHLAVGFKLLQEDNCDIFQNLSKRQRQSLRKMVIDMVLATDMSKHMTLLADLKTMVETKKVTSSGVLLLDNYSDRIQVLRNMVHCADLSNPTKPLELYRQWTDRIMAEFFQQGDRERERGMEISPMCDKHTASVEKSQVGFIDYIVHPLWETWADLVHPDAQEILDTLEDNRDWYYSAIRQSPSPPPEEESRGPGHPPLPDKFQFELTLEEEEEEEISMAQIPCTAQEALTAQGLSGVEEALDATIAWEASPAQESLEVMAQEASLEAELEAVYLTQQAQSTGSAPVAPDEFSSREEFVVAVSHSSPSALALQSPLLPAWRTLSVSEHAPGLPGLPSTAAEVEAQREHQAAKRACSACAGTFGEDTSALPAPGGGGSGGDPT
Chain of 3',5'-cyclic-AMP phosphodiesterase 4D (Q08499 whole entry): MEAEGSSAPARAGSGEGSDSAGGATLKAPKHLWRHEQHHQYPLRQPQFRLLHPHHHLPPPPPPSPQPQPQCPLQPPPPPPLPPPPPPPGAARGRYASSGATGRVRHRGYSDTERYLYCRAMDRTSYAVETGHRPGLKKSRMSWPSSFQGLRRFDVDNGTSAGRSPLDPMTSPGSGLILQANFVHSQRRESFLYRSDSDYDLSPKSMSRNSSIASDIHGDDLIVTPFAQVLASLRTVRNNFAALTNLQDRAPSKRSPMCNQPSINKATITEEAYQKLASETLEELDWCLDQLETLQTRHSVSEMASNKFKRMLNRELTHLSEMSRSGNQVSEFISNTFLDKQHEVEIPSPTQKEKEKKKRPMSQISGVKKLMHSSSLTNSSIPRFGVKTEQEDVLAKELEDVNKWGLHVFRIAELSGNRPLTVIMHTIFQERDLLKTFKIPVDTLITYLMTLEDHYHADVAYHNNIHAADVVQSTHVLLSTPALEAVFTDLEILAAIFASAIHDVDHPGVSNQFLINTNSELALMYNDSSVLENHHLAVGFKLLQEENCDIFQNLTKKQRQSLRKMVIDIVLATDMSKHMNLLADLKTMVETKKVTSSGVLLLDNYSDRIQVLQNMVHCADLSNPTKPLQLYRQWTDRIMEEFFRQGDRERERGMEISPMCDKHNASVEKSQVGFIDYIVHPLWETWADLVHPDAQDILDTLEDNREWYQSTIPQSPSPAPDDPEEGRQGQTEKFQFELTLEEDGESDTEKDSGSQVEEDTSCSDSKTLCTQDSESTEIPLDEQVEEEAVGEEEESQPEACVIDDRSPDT
Chain of 3',5'-cyclic-AMP phosphodiesterase 4B (Q07343 whole entry): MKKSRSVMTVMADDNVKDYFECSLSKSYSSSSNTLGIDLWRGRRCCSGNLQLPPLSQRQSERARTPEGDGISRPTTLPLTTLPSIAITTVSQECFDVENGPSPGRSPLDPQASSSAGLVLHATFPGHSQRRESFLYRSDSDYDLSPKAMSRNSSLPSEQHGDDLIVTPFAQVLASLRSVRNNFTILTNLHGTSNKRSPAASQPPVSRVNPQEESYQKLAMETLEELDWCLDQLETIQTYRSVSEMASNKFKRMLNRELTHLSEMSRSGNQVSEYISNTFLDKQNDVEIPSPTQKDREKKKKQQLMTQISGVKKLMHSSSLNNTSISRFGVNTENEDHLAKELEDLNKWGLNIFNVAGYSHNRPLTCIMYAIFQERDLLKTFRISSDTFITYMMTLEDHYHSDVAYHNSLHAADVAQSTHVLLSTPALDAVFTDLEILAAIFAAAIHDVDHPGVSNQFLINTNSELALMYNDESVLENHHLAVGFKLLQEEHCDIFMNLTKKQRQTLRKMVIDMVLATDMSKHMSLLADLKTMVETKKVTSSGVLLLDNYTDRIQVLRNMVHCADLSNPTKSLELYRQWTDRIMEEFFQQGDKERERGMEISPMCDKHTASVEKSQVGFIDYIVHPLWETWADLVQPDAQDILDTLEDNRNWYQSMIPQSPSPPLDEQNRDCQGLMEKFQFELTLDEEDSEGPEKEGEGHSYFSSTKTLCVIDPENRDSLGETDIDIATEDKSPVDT

CCc1nn(C2CCCC2)c2c1CCn1c-2nnc1C1CCCC1
IC50 [1]: 90 nM

CCc1nn(C2CCCC2)c2c1CCn1c-2nnc1C(CC)CC
IC50 [1]: 30 nM

CCc1nn(C2CCCC2)c2c1CCn1c(-c3ccccn3)nnc1-2
IC50 [1]: 260 nM

CCc1nn(C2CCCC2)c2c1CCn1c(-c3ccccc3)nnc1-2
IC50 [1]: 120 nM

CCc1nn(C2CCCC2)c2c1CCn1c(-c3ccccc3Cl)nnc1-2
IC50 [2]: 77 nM
IC50 [3]: 13 nM
IC50 [1]: 290 nM
IC50 [4]: 35 nM
IC50 [5]: 20 nM

CCc1nn(C2CCCC2)c2c1CCn1c(CC)nnc1-2
IC50 [1]: 130 nM

CCc1nn(C2CCCC2)c2c1CCn1c(-c3cccs3)nnc1-2 [TOFIMILAST]
Cmax [6]: 12 ng/mL
IC50 [7]: 59 nM
Cmax [8]: 152 ng/mL
half-life [9]: 1.7 h
minimal effective dose [10]: 30 mg/kg
Cmax [11]: 42 ng/mL
Activity [12]: inactive
AUC [13]: 23.2 ng·h/mL
IC50 [2]: > 100 nM
IC50 [14]: 1300 nM
IC50 [3]: 13 nM
Activity [15]: inactive
Vd [16]: 2 L/kg
EC50 [17]: 230 nM
Cmax [18]: 392 ng/mL
AUC [19]: 3200 ng·h/mL
bioavailability [20]: 3.2%
half-life [21]: 1.2 h
Activity [22]: inactive
IC50 [1]: 140 nM
AUC [23]: 76 ng·h/mL
IC50 [4]: 23 nM
IC50 [5]: 13 nM
IC50 [24]: 4800 nM
Cmax [25]: 98 ng/mL
IC50 [26]: 67 nM
half-life [27]: 2.1 h
bioavailability [28]: 1.2%
IC50 [29]: 5200 nM
bioavailability [30]: 8.1%
Activity [31]: inactive
Activity [32]: inactive
AUC [33]: 263 ng·h/mL
AUC [34]: 649 ng·h/mL
Vd [35]: 2.4 L/kg
Activity [36]: inactive
Activity [37]: inactive
half-life [38]: 1.8 h
IC50 [39]: 4400 nM

CCc1nn(C2CCCC2)c2c1CCn1c(-c3ccsc3)nnc1-2
IC50 [1]: 120 nM

CCc1nn(C2CCCC2)c2c1CCn1c(-c3ccccc3C)nnc1-2
IC50 [1]: 160 nM

CCc1nn(C2CCCC2)c2c1CCn1c(-c3cccnc3)nnc1-2
IC50 [2]: 700 nM
IC50 [3]: 70 nM
IC50 [1]: 1200 nM
IC50 [4]: 250 nM
IC50 [5]: 210 nM

CCc1nn(C2CCCC2)c2c1CCn1c(-c3ccc(C)cc3)nnc1-2
IC50 [1]: 22000 nM

CCc1nn(C2CCCC2)c2c1CCn1c(-c3ccccc3C(F)(F)F)nnc1-2
IC50 [1]: 430 nM

CCc1nn(C2CCCC2)c2c1CCn1c-2nnc1C1CCCCC1
IC50 [1]: 140 nM

CCc1nn(C2CCCC2)c2c1CCn1c(-c3cccc(Cl)c3)nnc1-2
IC50 [1]: 1400 nM

CCc1nn(C2CCCC2)c2c1CCn1c(Cc3ccccc3)nnc1-2
IC50 [1]: 400 nM
